Experimental data published in PubChem BioAssay AID330 (DTP/NCI, 2004).
“And” between values parts separate entries of the source, which are not always exact repeats. Equal entries are not always repeated. Toxic doses and inconclusive results are not listed.

System: P388 leukemia ip, CD2F1 mice, survival T/C
Assay: NCI In Vivo Anticancer Drug Screen. Data for tumor model P388 Leukemia (intraperitoneal) in CD2F1 (CDF1) mice
Settings: endpoint: median survival time, higher = longer survival
Method in brief: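 Mice carrying the transplanted tumor received test compound or vehicle. Survival was recorded in each group, and the value is the treated-group measurement divided by that of the vehicle-treated control group.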

[1] = dose: 50.0 mg/kg/injection, schedule: Q01DX009 (ip), vehicle: Klucel (hydroxypropylcellulose) (HPC)
[2] = dose: 100.0 mg/kg/injection, schedule: Q01DX009 (ip), vehicle: Klucel (hydroxypropylcellulose) (HPC)
[3] = dose: 200.0 mg/kg/injection, schedule: Q01DX009 (ip), vehicle: Klucel (hydroxypropylcellulose) (HPC)
[4] = dose: 400.0 mg/kg/injection, schedule: Q01DX009 (ip), vehicle: Klucel (hydroxypropylcellulose) (HPC)
[5] = dose: 50.0 mg/kg/injection, schedule: Q01DX005 (ip), vehicle: saline with Tween-80
[6] = dose: 100.0 mg/kg/injection, schedule: Q01DX005 (ip), vehicle: saline with Tween-80
[7] = dose: 200.0 mg/kg/injection, schedule: Q01DX005 (ip), vehicle: saline with Tween-80
[8] = dose: 60.0 mg/kg/injection, schedule: Q01DX005 (ip), vehicle: saline with Tween-80
[9] = dose: 120.0 mg/kg/injection, schedule: Q01DX005 (ip), vehicle: saline with Tween-80
[10] = dose: 240.0 mg/kg/injection, schedule: Q01DX005 (ip), vehicle: saline with Tween-80
[11] = dose: 25.0 mg/kg/injection, schedule: Q01DX005 (ip), vehicle: saline with Tween-80
[12] = dose: 25.0 mg/kg/injection, schedule: Q01DX009 (ip), vehicle: Klucel (hydroxypropylcellulose) (HPC)

With `CC[OH+]CC[OH+]CC[OH+]C1CCCC2CCC[N-]C21.[Cl][Cu][Cl]` (stereo not given) the T/C (dose: 6.25 mg/kg/injection, schedule: Q01DX005 (ip), vehicle: Klucel (hydroxypropylcellulose) (HPC)) was 97 % of control and the T/C (dose: 12.5 mg/kg/injection, schedule: Q01DX005 (ip), vehicle: Klucel (hydroxypropylcellulose) (HPC)) was 92 % of control.
`Cc1ccc(/C=C/C(=N/NC(=O)c2ccccc2)C(C)CN(C)C)cc1` (stereo not given) was tested, and the T/C (dose: 60.0 mg/kg/injection, schedule: Q01DX005 (ip), vehicle: saline) was 99 % of control and the T/C (dose: 120.0 mg/kg/injection, schedule: Q01DX005 (ip), vehicle: saline) was 111 % of control.
With `N#CCCSc1nnc(SCCC#N)s1` the T/C [1] was 92 % of control, the T/C [2] was 101 % of control and the T/C [3] was 94 % of control. For the same compound, the T/C [4] was 90 % of control.
`C=CC(=O)Nc1ccc2c(c1)OCCOCCOCCO2` was tested, and the T/C [5] was 101 % of control, the T/C [6] was 102 % of control and the T/C [7] was 100 % of control.
`CC12C(=O)NC(c3ccccc3)(c3ccccc31)C1C(=O)N(C(N)=O)C(=O)C12` (stereo not given) was tested, and the T/C [8] was 94 % of control, the T/C [9] was 89 % of control and the T/C [10] was 93 % of control.
In the case of `CN(C)C1C(=O)C(C(=O)NC[N+]23CCO[B-]2(c2ccc(Cl)cc2)OCC3)=C(O)C2(O)C(=O)C3=C(O)c4c(O)cccc4C(C)(O)C3CC12` (stereo not given), the T/C (dose: 25.0 mg/kg/injection, schedule: Q01DX005 (ip), vehicle: Klucel (hydroxypropylcellulose) (HPC)) is reported as 111 % of control, the T/C (dose: 50.0 mg/kg/injection, schedule: Q01DX005 (ip), vehicle: Klucel (hydroxypropylcellulose) (HPC)) is reported as 107 % of control and 108 % of control and 110 % of control and the T/C (dose: 100.0 mg/kg/injection, schedule: Q01DX005 (ip), vehicle: Klucel (hydroxypropylcellulose) (HPC)) is reported as 108 % of control (2×) and 114 % of control. For the same compound, the T/C (dose: 200.0 mg/kg/injection, schedule: Q01DX005 (ip), vehicle: Klucel (hydroxypropylcellulose) (HPC)) was 108 % of control and 119 % of control and 120 % of control.
For `COc1ccc(-c2cnc(=O)[nH]c2N)cc1`, the T/C (dose: 60.0 mg/kg/injection, schedule: Q01DX005 (ip), vehicle: suspension in saline) was 99 % of control, the T/C (dose: 120.0 mg/kg/injection, schedule: Q01DX005 (ip), vehicle: suspension in saline) was 97 % of control and the T/C (dose: 240.0 mg/kg/injection, schedule: Q01DX005 (ip), vehicle: suspension in saline) was 105 % of control.
With `C=C(c1ccc2nc(NC(=O)OC)[nH]c2c1)c1cccs1` the T/C [11] was 108 % of control, the T/C [5] was 99 % of control and the T/C [6] was 98 % of control. For the same compound, the T/C [7] was 100 % of control.
With `N#CCc1c(C2(c3ccncc3)OCCO2)[nH]c2ccccc12` the T/C (dose: 100.0 mg/kg/injection, schedule: Q01DX001 (ip), vehicle: saline) was 104 % of control, the T/C (dose: 200.0 mg/kg/injection, schedule: Q01DX001 (ip), vehicle: saline) was 113 % of control and the T/C (dose: 400.0 mg/kg/injection, schedule: Q01DX001 (ip), vehicle: saline) was 98 % of control.
For `CC(=O)c1c(-c2ccc(Cl)cc2)c(-c2ccc(Cl)cc2)nn(CCN)c1=O`, the T/C (dose: 12.5 mg/kg/injection, schedule: Q01DX005 (ip), vehicle: saline with Tween-80) was 100 % of control, the T/C [11] was 98 % of control and the T/C [5] was 98 % of control and 95 % of control.
In the case of `COC(=O)C1(C(=O)OC)C2C=CC(Cl)C21` (stereo not given), the T/C [1] is reported as 96 % of control, the T/C [2] is reported as 104 % of control and the T/C [3] is reported as 93 % of control.
For `O=S(=O)(Nc1ccc(O)c(Cl)c1)c1ccccc1`, the T/C (dose: 100.0 mg/kg/injection, schedule: Q04DX003 (ip), vehicle: saline with Tween-80) was 100 % of control, the T/C (dose: 200.0 mg/kg/injection, schedule: Q04DX003 (ip), vehicle: saline with Tween-80) was 100 % of control and the T/C (dose: 400.0 mg/kg/injection, schedule: Q04DX003 (ip), vehicle: saline with Tween-80) was 100 % of control.
With `C=CS(=O)(=O)c1cccc(N2C(=O)c3cc(S(=O)(=O)O)cc4c(N)c(S(=O)(=O)O)cc(c34)C2=O)c1` the T/C (dose: 50.0 mg/kg/injection, schedule: Q01DX005 (ip), vehicle: saline) was 107 % of control, the T/C (dose: 100.0 mg/kg/injection, schedule: Q01DX005 (ip), vehicle: saline) was 107 % of control and the T/C (dose: 200.0 mg/kg/injection, schedule: Q01DX005 (ip), vehicle: saline) was 100 % of control.
With `Nc1cc(-c2ccc(Br)cc2)nn1-c1nc(-c2ccc(Br)cc2)cs1` the T/C [12] was 87 % of control, the T/C [1] was 86 % of control and the T/C [2] was 87 % of control. The T/C [3] was 89 % of control.
In the case of `CCCCNc1ncnc2[nH]ncc12`, the T/C (dose: 12.5 mg/kg/injection, schedule: Q01DX009 (ip), vehicle: saline with Tween-80) is reported as 100 % of control, the T/C (dose: 12.5 mg/kg/injection, schedule: Q04DX003 (ip), vehicle: saline with Tween-80) is reported as 90 % of control and the T/C (dose: 25.0 mg/kg/injection, schedule: Q01DX009 (ip), vehicle: saline with Tween-80) is reported as 110 % of control. The T/C (dose: 25.0 mg/kg/injection, schedule: Q04DX003 (ip), vehicle: saline with Tween-80) was 95 % of control, the T/C (dose: 50.0 mg/kg/injection, schedule: Q01DX009 (ip), vehicle: saline with Tween-80) was 105 % of control and the T/C (dose: 50.0 mg/kg/injection, schedule: Q04DX003 (ip), vehicle: saline with Tween-80) was 90 % of control.
In the case of `O=C(OCCn1c(=O)n(CCOC(=O)c2cccc([N+](=O)[O-])c2)c(=O)n(CCOC(=O)c2cccc([N+](=O)[O-])c2)c1=O)c1cccc([N+](=O)[O-])c1`, the T/C (dose: 100.0 mg/kg/injection, schedule: Q04DX003 (ip), vehicle: Klucel (hydroxypropylcellulose) (HPC)) is reported as 93 % of control, the T/C (dose: 200.0 mg/kg/injection, schedule: Q04DX003 (ip), vehicle: Klucel (hydroxypropylcellulose) (HPC)) is reported as 86 % of control and the T/C (dose: 400.0 mg/kg/injection, schedule: Q04DX003 (ip), vehicle: Klucel (hydroxypropylcellulose) (HPC)) is reported as 87 % of control.
In the case of `CC1=CC(C)(O)C=C(C)C1=O`, the T/C (dose: 3.13 mg/kg/injection, schedule: Q01DX009 (ip), vehicle: water) is reported as 105 % of control, the T/C (dose: 6.25 mg/kg/injection, schedule: Q01DX009 (ip), vehicle: water) is reported as 97 % of control and the T/C (dose: 12.5 mg/kg/injection, schedule: Q01DX009 (ip), vehicle: water) is reported as 96 % of control. For the same compound, the T/C (dose: 25.0 mg/kg/injection, schedule: Q01DX009 (ip), vehicle: water) was 100 % of control, the T/C (dose: 50.0 mg/kg/injection, schedule: Q01DX009 (ip), vehicle: water) was 99 % of control and the T/C (dose: 100.0 mg/kg/injection, schedule: Q01DX009 (ip), vehicle: water) was 98 % of control.
`C=CCN=C(N)S[As]1c2ccccc2Oc2ccccc21` was tested, and the T/C (dose: 50.0 mg/kg/injection, schedule: Q01DX009 (ip), vehicle: saline) was 100 % of control, the T/C (dose: 100.0 mg/kg/injection, schedule: Q01DX009 (ip), vehicle: saline) was 98 % of control and the T/C (dose: 200.0 mg/kg/injection, schedule: Q01DX009 (ip), vehicle: saline) was 102 % of control.
In the case of `CCOC(=O)C1=C(C)O/C(=C/c2ccc(OC)cc2)C1=O`, the T/C [1] is reported as 98 % of control, the T/C [2] is reported as 93 % of control and the T/C [3] is reported as 100 % of control.
In the case of `NC(CSC(c1ccccc1)(c1ccccc1)c1ccc(CBr)cc1)C(=O)O` (stereo not given), the T/C (dose: 12.5 mg/kg/injection, schedule: Q01DX009 (ip), vehicle: Klucel (hydroxypropylcellulose) (HPC)) is reported as 86 % of control, the T/C (dose: 12.5 mg/kg/injection, schedule: Q01DX009 (ip), vehicle: other) is reported as 120 % of control and the T/C [12] is reported as 90 % of control. For the same compound, the T/C [1] was 95 % of control, the T/C [2] was 88 % of control and the T/C (dose: 100.0 mg/kg/injection, schedule: Q01DX009 (ip), vehicle: other) was 151 % of control and 159 % of control. The T/C [3] was 90 % of control, the T/C (dose: 200.0 mg/kg/injection, schedule: Q01DX009 (ip), vehicle: other) was 162 % of control and 178 % of control and the T/C [4] was 94 % of control. For the same compound, the T/C (dose: 400.0 mg/kg/injection, schedule: Q01DX009 (ip), vehicle: other) was 182 % of control.
With `Nc1ccc2c(c1)CCCC2=O` the T/C [8] was 102 % of control, the T/C [9] was 93 % of control and the T/C [10] was 107 % of control.
With `CC(NC(=O)c1ccc(C(C[N+](=O)[O-])SCCC(=O)O)cc1)C(=O)O` (stereo not given) the T/C (dose: 60.0 mg/kg/injection, schedule: Q01DX005 (ip), vehicle: saline + Tween-80 + alcohol) was 98 % of control, the T/C (dose: 120.0 mg/kg/injection, schedule: Q01DX005 (ip), vehicle: saline + Tween-80 + alcohol) was 99 % of control and the T/C (dose: 240.0 mg/kg/injection, schedule: Q01DX005 (ip), vehicle: saline + Tween-80 + alcohol) was 107 % of control.
`CC(=O)OCC12CCC(C)=CC1OC1C(OS(C)(=O)=O)C(=O)C2(C)C12CO2` (stereo not given) was tested, and the T/C (dose: 0.5 mg/kg/injection, schedule: Q01DX009 (ip), vehicle: saline) was 100 % of control, the T/C (dose: 1.0 mg/kg/injection, schedule: Q01DX009 (ip), vehicle: saline) was 103 % of control and the T/C (dose: 2.0 mg/kg/injection, schedule: Q01DX009 (ip), vehicle: saline) was 109 % of control. The T/C (dose: 4.0 mg/kg/injection, schedule: Q01DX009 (ip), vehicle: saline) was 110 % of control.
